Structures can show the parent of a compound that is named as a salt.
Key:
Restless Legs Syndrome [1] = settings: RLS; well controlled studies prior to 1987; cited from earlier work
Restless Legs Syndrome [2] = assay: RLS patients treated with ropinirole (patient reports); type: in vivo, human; settings: almost at once
Restless Legs Syndrome [3] = settings: RLS, cited from earlier work

In the case of NC(=O)N1c2ccccc2C=Cc2ccccc21 [carbamazepine], the “efficacy compared with placebo” value (Restless Legs Syndrome [1]) is listed as “superior to placebos”.

For O=C1CN=C(c2ccccc2Cl)c2cc([N+](=O)[O-])ccc2N1 [clonazepam], the “efficacy compared with placebo” value (Restless Legs Syndrome [1]) is listed as “superior to placebos”.

In the case of CCCN(CCC)CCc1cccc2c1CC(=O)N2 [ropinirole, 4-[2-(di-n-propylamino)ethyl]-1,3-dihydro-2H-indolin-2-one hydrochloride], the “improvement in condition reported by RLS patients” value (Restless Legs Syndrome [2]) is reported as “dramatic improvement”.

For N[C@@H](Cc1ccc(O)c(O)c1)C(=O)O [L-dopa], the “time for which the effect has been maintained” value (Restless Legs Syndrome [3]; L-dopa) is listed as 2 years and the “patients in whom treatment was effective” value (Restless Legs Syndrome [3]; doses of L-dopa of 100 mg to 200 mg) is listed as 70 % of patients.
